Reference: PubChem BioAssay AID1963833 (Molecular Pharmacology Branch, DTP, NCI, 2024)

System: 883617-216-R-J1-PDC complex spheroid viability
Test: Anticancer human tumor 883617-216-R-J1-PDC patient-derived bladder carcinoma cell line growth inhibition [POLQ]
Settings: for IC50: curve of first compound; for viability, T/C: stronger effect = lower value
Method in brief: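 Three-cell-type spheroids modelling solid tumor plus stroma served as the readout system; POL inhibitors were tested individually and in combination, concentration ranges set by clinical Cmax where known.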
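Further: spheroids exposed to compounds for seven days before readout.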
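Wherever viability, T/C is given: 100% = DMSO vehicle control viability.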

Compound CC(=O)O[C@H]1C(=O)[C@@]2(C)[C@H]([C@H](OC(=O)c3ccccc3)[C@]3(O)C[C@H](OC(=O)[C@H](O)[C@@H](NC(=O)c4ccccc4)c4ccccc4)C(C)=C1C3(C)C)[C@]1(OC(C)=O)CO[C@@H]1C[C@@H]2O + COC1C(OC(N)=O)C(O)C(Oc2ccc3c(O)c(NC(=O)c4ccc(O)c(CC=C(C)C)c4)c(=O)oc3c2C)OC1(C)C has an IC50 (second compound 0.0316 µM) of under 0.00949 µM, an IC50 (second compound 0.1 µM) of under 0.00949 µM and an IC50 (second compound 0.316 µM) of under 0.00949 µM. It also gave an IC50 (second compound 1 µM) of under 0.00949 µM, an IC50 (second compound 3.16 µM) of under 0.00949 µM and an IC50 (second compound 10 µM) of under 0.00949 µM. For the same compound, the viability, T/C (second compound 0.0316 µM, first compound 0.00949 µM) was 39.5%, the viability, T/C (second compound 0.0316 µM, first compound 0.03 µM) was 27.8% and the viability, T/C (second compound 0.0316 µM, first compound 0.0949 µM) was 26.4%. It also gave a viability, T/C (second compound 0.0316 µM, first compound 0.3 µM) of 20.8%, a viability, T/C (second compound 0.0316 µM, first compound 0.949 µM) of 18.2% and a viability, T/C (second compound 0.0316 µM, first compound 3 µM) of 19.8%. It also gave a viability, T/C (second compound 0.1 µM, first compound 0.00949 µM) of 40.2%, a viability, T/C (second compound 0.1 µM, first compound 0.03 µM) of 34.2% and a viability, T/C (second compound 0.1 µM, first compound 0.0949 µM) of 23.4%. It also gave a viability, T/C (second compound 0.1 µM, first compound 0.3 µM) of 23.7%, a viability, T/C (second compound 0.1 µM, first compound 0.949 µM) of 19.6% and a viability, T/C (second compound 0.1 µM, first compound 3 µM) of 20.7%. The viability, T/C (second compound 0.316 µM, first compound 0.00949 µM) was 50.6%, the viability, T/C (second compound 0.316 µM, first compound 0.03 µM) was 27.9% and the viability, T/C (second compound 0.316 µM, first compound 0.0949 µM) was 25.4%. It also gave a viability, T/C (second compound 0.316 µM, first compound 0.3 µM) of 17.5%, a viability, T/C (second compound 0.316 µM, first compound 0.949 µM) of 16.1% and a viability, T/C (second compound 0.316 µM, first compound 3 µM) of 20.6%. It also gave a viability, T/C (second compound 1 µM, first compound 0.00949 µM) of 42.2%, a viability, T/C (second compound 1 µM, first compound 0.03 µM) of 28.2% and a viability, T/C (second compound 1 µM, first compound 0.0949 µM) of 19%. For the same compound, the viability, T/C (second compound 1 µM, first compound 0.3 µM) was 26%, the viability, T/C (second compound 1 µM, first compound 0.949 µM) was 20.5% and the viability, T/C (second compound 1 µM, first compound 3 µM) was 15.9%. For the same compound, the viability, T/C (second compound 3.16 µM, first compound 0.00949 µM) was 42.7%, the viability, T/C (second compound 3.16 µM, first compound 0.03 µM) was 31.1% and the viability, T/C (second compound 3.16 µM, first compound 0.0949 µM) was 21.9%. For the same compound, the viability, T/C (second compound 3.16 µM, first compound 0.3 µM) was 22.7%, the viability, T/C (second compound 3.16 µM, first compound 0.949 µM) was 23.7% and the viability, T/C (second compound 3.16 µM, first compound 3 µM) was 17.1%. It also gave a viability, T/C (second compound 10 µM, first compound 0.00949 µM) of 42.2%, a viability, T/C (second compound 10 µM, first compound 0.03 µM) of 27.1% and a viability, T/C (second compound 10 µM, first compound 0.0949 µM) of 15.1%. For the same compound, the viability, T/C (second compound 10 µM, first compound 0.3 µM) was 16%, the viability, T/C (second compound 10 µM, first compound 0.949 µM) was 21% and the viability, T/C (second compound 10 µM, first compound 3 µM) was 21.6%.

For C#Cc1c(F)ccc2cc(O)cc(-c3ncc4c(N5CC6CCC(C5)N6)nc(OCC56CCCN5CC(F)C6)nc4c3F)c12 (centres undefined) + Cc1cccc(N(C)C(=O)C2C(O)CCN2c2nc(C)cc(C(F)(F)F)c2C#N)c1, the IC50 (second compound 0.0316 µM) was over 10 µM, the IC50 (second compound 0.1 µM) was over 10 µM and the IC50 (second compound 0.316 µM) was over 10 µM. For the same compound, the IC50 (second compound 1 µM) was over 10 µM, the IC50 (second compound 3.16 µM) was over 10 µM and the IC50 (second compound 10 µM) was over 10 µM. For the same compound, the viability, T/C (second compound 0.0316 µM, first compound 0.0316 µM) was 98.1%, the viability, T/C (second compound 0.0316 µM, first compound 0.1 µM) was 109% and the viability, T/C (second compound 0.0316 µM, first compound 0.316 µM) was 97.7%. For the same compound, the viability, T/C (second compound 0.0316 µM, first compound 1 µM) was 95.1%, the viability, T/C (second compound 0.0316 µM, first compound 3.16 µM) was 86.8% and the viability, T/C (second compound 0.0316 µM, first compound 10 µM) was 70.1%. The viability, T/C (second compound 0.1 µM, first compound 0.0316 µM) was 98%, the viability, T/C (second compound 0.1 µM, first compound 0.1 µM) was 104% and the viability, T/C (second compound 0.1 µM, first compound 0.316 µM) was 109%. For the same compound, the viability, T/C (second compound 0.1 µM, first compound 1 µM) was 89.8%, the viability, T/C (second compound 0.1 µM, first compound 3.16 µM) was 86.2% and the viability, T/C (second compound 0.1 µM, first compound 10 µM) was 81.4%. It also gave a viability, T/C (second compound 0.316 µM, first compound 0.0316 µM) of 108%, a viability, T/C (second compound 0.316 µM, first compound 0.1 µM) of 101% and a viability, T/C (second compound 0.316 µM, first compound 0.316 µM) of 110%. It also gave a viability, T/C (second compound 0.316 µM, first compound 1 µM) of 100%, a viability, T/C (second compound 0.316 µM, first compound 3.16 µM) of 80.6% and a viability, T/C (second compound 0.316 µM, first compound 10 µM) of 77.6%. The viability, T/C (second compound 1 µM, first compound 0.0316 µM) was 104%, the viability, T/C (second compound 1 µM, first compound 0.1 µM) was 99% and the viability, T/C (second compound 1 µM, first compound 0.316 µM) was 106%. For the same compound, the viability, T/C (second compound 1 µM, first compound 1 µM) was 89.9%, the viability, T/C (second compound 1 µM, first compound 3.16 µM) was 86.5% and the viability, T/C (second compound 1 µM, first compound 10 µM) was 72.2%. The viability, T/C (second compound 3.16 µM, first compound 0.0316 µM) was 103%, the viability, T/C (second compound 3.16 µM, first compound 0.1 µM) was 101% and the viability, T/C (second compound 3.16 µM, first compound 0.316 µM) was 97.8%. It also gave a viability, T/C (second compound 3.16 µM, first compound 1 µM) of 94.5%, a viability, T/C (second compound 3.16 µM, first compound 3.16 µM) of 81.5% and a viability, T/C (second compound 3.16 µM, first compound 10 µM) of 78%. It also gave a viability, T/C (second compound 10 µM, first compound 0.0316 µM) of 115%, a viability, T/C (second compound 10 µM, first compound 0.1 µM) of 102% and a viability, T/C (second compound 10 µM, first compound 0.316 µM) of 104%. It also gave a viability, T/C (second compound 10 µM, first compound 1 µM) of 106%, a viability, T/C (second compound 10 µM, first compound 3.16 µM) of 87.7% and a viability, T/C (second compound 10 µM, first compound 10 µM) of 76.2%.
